Reference: PubChem BioAssay (NCI)
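Protocol summary: plate cells (96-well), add compound at 5 concentrations, incubate 48 h, interpolate endpoints linearly. TGI: total growth inhibition.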 Where a SMILES comes first, the peptide text is derived from it.

Key:
Assay in all cases: NCI tumour cell line growth inhibition, 48 h
SN12K1 renal = system: SN12K1 renal
LXFL 529 NSCLC = system: LXFL 529 NSCLC
RXF-631 renal = system: RXF-631 renal

SMILES | TGI (SN12K1 renal) | TGI (LXFL 529 NSCLC) | TGI (RXF-631 renal)
CC1=C2C(O)C(C(C)C(=O)NCC(C)C)CCC2(C)C=CC1=O (centres undefined) | > 100 µM | – | –
C=C1C(=O)O[C@@H]2[C@H]3O[C@]3(C)CCC=C(C)CC[C@@H]12 | 37.9 µM | – | –
CN(C)c1nc(N(C)C)nc(N(C)C)n1 | > 150 µM | > 150 µM | –
C=CC1(C)CCC(C(C)C(=O)C(C=C(C)C)OC(C)=O)C12C(=O)Oc1ccccc1C2=O (centres undefined) | – | > 100 µM | –
NC(N)=NCCCC(N=c1c2ccccc2n(O)c2ccccc12)C(=O)O (centres undefined) | – | > 100 µM | > 100 µM
CC1NC(=O)CNC(=O)CNC(=O)C(Cc2ccc(O)cc2)NC(=O)C(C(C)C)NC(=O)C(C)NC1=O (centres undefined) (cyclo(GGAAVY); configuration not given here) | > 100 µM | – | –
NC(=S)/N=C/c1c(O)c2ccccc2oc1=O | – | > 100 µM | –
